Experimental data taken from patent publication US20070093520A1, “Method of treatment of diarrhea-predominant irritable bowel syndrome in a subject” (priority 2005, published 2007).

System: diarrhea-predominant IBS subjects
Assay: 3007 Study: open-label 52-week safety study, adverse events and withdrawals

Cc1nccn1C[C@H]1CCc2c(c3cccc4c3n2CCC4)C1=O [cilansetron, (R)-(−)-4,5,6,8,9,10-hexahydro-10-[(2-methyl-1H-imidazol-1-yl)methyl]-11H-pyrido-[3,2,1-jk]-carbazol-11-one]
TEAE: Sexual Desire Disorders (P/C group): 1 (<1%) n (%) | TEAE: Sick Sinus Syndrome (P/C group): 1 (<1%) n (%) | TEAE: Sinus Arrhythmia (P/C group): 1 (<1%) n (%) | TEAE: Sinus Congestion (P/C group): 3 (1%) n (%) | TEAE: Skin Disorder NOS (P/C group): 1 (<1%) n (%) | TEAE: Skin Injuries and Mechanical Dermatoses (P/C group): 2 (<1%) n (%) | TEAE: Skin Lesion NOS (P/C group): 2 (<1%) n (%) | TEAE: Skin Neoplasms Benign (P/C group): 1 (<1%) n (%) | TEAE: Skin Neoplasms Malignant and Unspecified (Excl Melanoma) (P/C group): 4 (1%) n (%) | TEAE: Skin Ulcer (P/C group): 1 (<1%) n (%) | TEAE: Skin and Subcutaneous Tissue Disorders (P/C group): 25 (9%) n (%) | TEAE: Skin and Subcutaneous Tissue Ulcerations (P/C group): 1 (<1%) n (%) | TEAE: Social Circumstances (P/C group): 1 (<1%) n (%) | TEAE: Soft Tissue Neoplasms Benign NEC (P/C group): 0 n (%) | TEAE: Strabismus (P/C group): 1 (<1%) n (%) | TEAE: Stress Incontinence (P/C group): 0 n (%) | TEAE: Stress Symptoms (P/C group): 1 (<1%) n (%) | TEAE: Structural and Other Bile Duct Disorders (P/C group): 1 (<1%) n (%) | TEAE: Sugar Intolerance (Excl Glucose Intolerance) (P/C group): 1 (<1%) n (%) | TEAE: Suicidal Ideation (P/C group): 1 (<1%) n (%) | TEAE: Suicidal and Self-Injurious Behaviour (P/C group): 1 (<1%) n (%) | TEAE: Supraventricular Arrhythmias (P/C group): 3 (1%) n (%) | TEAE: Supraventricular Tachycardia (P/C group): 1 (<1%) n (%) | TEAE: Surgical and Medical Procedures (P/C group): 1 (<1%) n (%) | TEAE: Sweating Increased (P/C group): 2 (<1%) n (%) | TEAE: Swelling Face (P/C group): 1 (<1%) n (%) | TEAE: Tachycardia NOS (P/C group): 0 n (%) | TEAE: Tenderness NOS (P/C group): 1 (<1%) n (%) | TEAE: Thrombocytopenia (P/C group): 1 (<1%) n (%) | TEAE: Thrombocytopenias (P/C group): 1 (<1%) n (%) | TEAE: Thrombophlebitis Superficial (P/C group): 1 (<1%) n (%) | TEAE: Thyroid Disorders NEC (P/C group): 0 n (%) | TEAE: Thyroid Hypofunction Disorders (P/C group): 1 (<1%) n (%) | TEAE: Thyroid Neoplasms (P/C group): 1 (<1%) n (%) | TEAE: Thyroid Nodule (P/C group): 1 (<1%) n (%) | TEAE: Tinnitus (P/C group): 0 n (%) | TEAE: Total Fluid Volume Decreased (P/C group): 1 (<1%) n (%) | TEAE: Tympanic Membrane Disorder NOS (P/C group): 1 (<1%) n (%) | TEAE: Tympanic Membrane Disorders (Excl Infections) (P/C group): 1 (<1%) n (%) | TEAE: Upper Respiratory Tract Signs and Symptoms (P/C group): 4 (1%) n (%) | TEAE: Urinary Abnormalities (P/C group): 1 (<1%) n (%) | TEAE: Urinary Frequency (P/C group): 1 (<1%) n (%) | TEAE: Urinary Incontinence (P/C group): 0 n (%) | TEAE: Urinary Retention (P/C group): 0 n (%) | TEAE: Urinary Tract Lithiasis (Excl Renal) (P/C group): 0 n (%) | TEAE: Urinary Tract Signs and Symptoms NEC (P/C group): 1 (<1%) n (%) | TEAE: Urine Abnormal NOS (P/C group): 0 n (%) | TEAE: Urticaria NOS (P/C group): 2 (<1%) n (%) | TEAE: Urticarias (P/C group): 2 (<1%) n (%) | TEAE: Uterine Disorders NEC* (P/C group): 0 n (%) | TEAE: Uterine Fibroids* (P/C group): 0 n (%) | TEAE: Uterine Neoplasms Benign* (P/C group): 0 n (%) | TEAE: Uterine Neoplasms* (P/C group): 0 n (%) | TEAE: Uterine Polyp NOS* (P/C group): 0 n (%) | TEAE: Vaginal Cyst* (P/C group): 0 n (%) | TEAE: Vaginal Lesion* (P/C group): 0 n (%) | TEAE: Varicose Vein Ruptured (P/C group): 0 n (%) | TEAE: Varicose Veins Non-Site Specific (P/C group): 0 n (%) | TEAE: Vascular Disorders (P/C group): 8 (3%) n (%) | TEAE: Vascular Hypertensive Disorders NEC (P/C group): 7 (3%) n (%) | TEAE: Vascular Hypotensive Disorders (P/C group): 1 (<1%) n (%) | TEAE: Ventricular Arrhythmias and Cardiac Arrest (P/C group): 1 (<1%) n (%) | TEAE: Ventricular Extrasystoles (P/C group): 0 n (%) | TEAE: Vertigo (P/C group): 1 (<1%) n (%) | TEAE: Visual Acuity Reduced (P/C group): 1 (<1%) n (%) | TEAE: Vitreous Disorder NOS (P/C group): 1 (<1%) n (%) | TEAE: Vulvovaginal Cysts and Neoplasms* (P/C group): 0 n (%) | TEAE: Vulvovaginal Dryness* (P/C group): 2 (1%) n (%) | TEAE: Vulvovaginal Signs and Symptoms* (P/C group): 2 (1%) n (%) | TEAE: Wheezing (P/C group): 0 n (%) | TEAE: Abdominal Discomfort (Placebo/Cilansetron 2 mg): 0 n (%) | TEAE: Abdominal Distension (Placebo/Cilansetron 2 mg): 6 (2%) n (%) | TEAE: Abdominal Pain Aggravated (Placebo/Cilansetron 2 mg): 0 n (%) | TEAE: Abdominal Pain Lower (Placebo/Cilansetron 2 mg): 6 (2%) n (%) | TEAE: Abdominal Pain NOS (Placebo/Cilansetron 2 mg): 21 (8%) n (%) | TEAE: Abdominal Pain Upper (Placebo/Cilansetron 2 mg): 4 (1%) n (%) | TEAE: Abdominal Rebound Tenderness (Placebo/Cilansetron 2 mg): 0 n (%) | TEAE: Abdominal Tenderness (Placebo/Cilansetron 2 mg): 4 (1%) n (%) | TEAE: Abnormal Reflexes (Placebo/Cilansetron 2 mg): 0 n (%) | TEAE: Alanine Aminotransferase Increased (Placebo/Cilansetron 2 mg): 6 (2%) n (%) | TEAE: Anal and Rectal Disorders NEC (Placebo/Cilansetron 2 mg): 1 (<1%) n (%) | TEAE: Anal and Rectal Pains (Placebo/Cilansetron 2 mg): 4 (1%) n (%) | TEAE: Anal and Rectal Signs and Symptoms (Placebo/Cilansetron 2 mg): 3 (1%) n (%) | TEAE: Animal Bite (Placebo/Cilansetron 2 mg): 1 (<1%) n (%) | TEAE: Appendicitis (Placebo/Cilansetron 2 mg): 0 n (%) | TEAE: Arthralgia (Placebo/Cilansetron 2 mg): 3 (1%) n (%) | TEAE: Arthritis NOS (Placebo/Cilansetron 2 mg): 0 n (%) | TEAE: Arthritis NOS Aggravated (Placebo/Cilansetron 2 mg): 0 n (%) | TEAE: Arthropathies NEC (Placebo/Cilansetron 2 mg): 1 (<1%) n (%) | TEAE: Arthropod Bite (Placebo/Cilansetron 2 mg): 1 (<1%) n (%) | TEAE: Arthropod Sting (Placebo/Cilansetron 2 mg): 1 (<1%) n (%) | TEAE: Aspartate Aminotransferase Increased (Placebo/Cilansetron 2 mg): 3 (1%) n (%) | TEAE: Back Injury NOS (Placebo/Cilansetron 2 mg): 0 n (%) | TEAE: Back Pain (Placebo/Cilansetron 2 mg): 6 (2%) n (%) | TEAE: Back Pain Aggravated (Placebo/Cilansetron 2 mg): 1 (<1%) n (%) | TEAE: Bacteria Identification and Serology (Excl Mycobacteria) (Placebo/Cilansetron 2 mg): 0 n (%) | TEAE: Bilirubin Urine (Placebo/Cilansetron 2 mg): 0 n (%) | TEAE: Bladder Infection NOS (Placebo/Cilansetron 2 mg): 1 (<1%) n (%) | TEAE: Blood Alkaline Phosphatase NOS Increased (Placebo/Cilansetron 2 mg): 1 (<1%) n (%) | TEAE: Blood Bilirubin Increased (Placebo/Cilansetron 2 mg): 2 (<1%) n (%) | TEAE: Blood Cholesterol Increased (Placebo/Cilansetron 2 mg): 8 (3%) n (%) | TEAE: Blood Creatine Phosphokinase Increased (Placebo/Cilansetron 2 mg): 8 (3%) n (%) | TEAE: Blood Creatine Phosphokinase Mb Increased (Placebo/Cilansetron 2 mg): 0 n (%) | TEAE: Blood Creatinine Increased (Placebo/Cilansetron 2 mg): 3 (1%) n (%) | TEAE: Blood Glucose Increased (Placebo/Cilansetron 2 mg): 0 n (%) | TEAE: Blood Potassium Increased (Placebo/Cilansetron 2 mg): 0 n (%) | TEAE: Blood Pressure Increased (Placebo/Cilansetron 2 mg): 2 (<1%) n (%) | TEAE: Blood Sodium Increased (Placebo/Cilansetron 2 mg): 0 n (%) | TEAE: Blood Triglycerides Increased (Placebo/Cilansetron 2 mg): 4 (1%) n (%) | TEAE: Blood Uric Acid Increased (Placebo/Cilansetron 2 mg): 0 n (%) | TEAE: Blood Urine Present (Placebo/Cilansetron 2 mg): 4 (1%) n (%) | TEAE: Blood in Stool (Placebo/Cilansetron 2 mg): 4 (1%) n (%) | TEAE: Bone Density Decreased (Placebo/Cilansetron 2 mg): 1 (<1%) n (%) | TEAE: Bone Disorder NOS (Placebo/Cilansetron 2 mg): 0 n (%) | TEAE: Bone Disorders NEC (Placebo/Cilansetron 2 mg): 2 (<1%) n (%) | TEAE: Bone Injury (Placebo/Cilansetron 2 mg): 0 n (%) | TEAE: Bone Spur (Placebo/Cilansetron 2 mg): 1 (<1%) n (%) | TEAE: Bronchitis Acute NOS (Placebo/Cilansetron 2 mg): 1 (<1%) n (%) | TEAE: Bronchitis NOS (Placebo/Cilansetron 2 mg): 5 (2%) n (%) | TEAE: Bronchopneumonia NOS (Placebo/Cilansetron 2 mg): 1 (<1%) n (%) | TEAE: Bunion (Placebo/Cilansetron 2 mg): 0 n (%) | TEAE: Bursal Disorders (Placebo/Cilansetron 2 mg): 3 (1%) n (%) | TEAE: Bursitis (Placebo/Cilansetron 2 mg): 2 (<1%) n (%) | TEAE: Candida Infections (Placebo/Cilansetron 2 mg): 2 (<1%) n (%) | TEAE: Candidal Infection NOS (Placebo/Cilansetron 2 mg): 1 (<1%) n (%) | TEAE: Carbohydrate Tolerance Analyses (Incl Diabetes) (Placebo/Cilansetron 2 mg): 0 n (%) | TEAE: Cardiac Auscultatory Investigations (Placebo/Cilansetron 2 mg): 0 n (%) | TEAE: Cardiac Murmur NOS (Placebo/Cilansetron 2 mg): 0 n (%) | TEAE: Carotid Bruit (Placebo/Cilansetron 2 mg): 1 (<1%) n (%) | TEAE: Carpal Tunnel Syndrome (Placebo/Cilansetron 2 mg): 1 (<1%) n (%) | TEAE: Cartilage Disorder NOS (Placebo/Cilansetron 2 mg): 0 n (%) | TEAE: Cartilage Disorders (Placebo/Cilansetron 2 mg): 0 n (%) | TEAE: Cellulitis (Placebo/Cilansetron 2 mg): 1 (<1%) n (%) | TEAE: Cervical Spasm (Placebo/Cilansetron 2 mg): 0 n (%) | TEAE: Change in Bowel Habit NOS (Placebo/Cilansetron 2 mg): 1 (<1%) n (%) | TEAE: Chapped Lips (Placebo/Cilansetron 2 mg): 1 (<1%) n (%) | TEAE: Chest Wall Pain (Placebo/Cilansetron 2 mg): 2 (<1%) n (%) | TEAE: Cholesterol Analyses (Placebo/Cilansetron 2 mg): 8 (3%) n (%) | TEAE: Colitis (Excl Infective) (Placebo/Cilansetron 2 mg): 1 (<1%) n (%) | TEAE: Colitis Ischaemic (Placebo/Cilansetron 2 mg): 1 (<1%) n (%) | TEAE: Colonic Polyp (Placebo/Cilansetron 2 mg): 0 n (%) | TEAE: Connective Tissue Disorders (Excl Le) (Placebo/Cilansetron 2 mg): 2 (<1%) n (%) | TEAE: Constipation (Placebo/Cilansetron 2 mg): 62 (22%) n (%) | TEAE: Cystitis NOS (Placebo/Cilansetron 2 mg): 0 n (%) | TEAE: Dental Disorders NEC (Placebo/Cilansetron 2 mg): 0 n (%) | TEAE: Dental Infections - Pathogen Class Unspecified (Placebo/Cilansetron 2 mg): 2 (<1%) n (%) | TEAE: Dental Pain and Sensation Disorders (Placebo/Cilansetron 2 mg): 1 (<1%) n (%) | TEAE: Diaphragmatic Hernias (Placebo/Cilansetron 2 mg): 0 n (%) | TEAE: Diarrhoea (Excl Infective) (Placebo/Cilansetron 2 mg): 15 (5%) n (%) | TEAE: Diarrhoea Aggravated (Placebo/Cilansetron 2 mg): 2 (<1%) n (%) | TEAE: Diarrhoea Haemorrhagic (Placebo/Cilansetron 2 mg): 2 (<1%) n (%) | TEAE: Diarrhoea NOS (Placebo/Cilansetron 2 mg): 9 (3%) n (%) | TEAE: Disturbances in Consciousness NEC (Placebo/Cilansetron 2 mg): 1 (<1%) n (%) | TEAE: Diverticulitis NOS (Placebo/Cilansetron 2 mg): 1 (<1%) n (%) | TEAE: Diverticulum Inflammations (Placebo/Cilansetron 2 mg): 1 (<1%) n (%) | TEAE: Dizziness (Placebo/Cilansetron 2 mg): 2 (<1%) n (%) | TEAE: Dry Mouth (Placebo/Cilansetron 2 mg): 1 (<1%) n (%) | TEAE: Dysarthria (Placebo/Cilansetron 2 mg): 1 (<1%) n (%) | TEAE: Dyskinesias and Movement Disorders NEC (Placebo/Cilansetron 2 mg): 1 (<1%) n (%) | TEAE: Dyspepsia (Placebo/Cilansetron 2 mg): 7 (3%) n (%) | TEAE: Dyspepsia Aggravated (Placebo/Cilansetron 2 mg): 0 n (%) | TEAE: Dyspeptic Signs and Symptoms (Placebo/Cilansetron 2 mg): 7 (3%) n (%) | TEAE: ECG Investigations (Placebo/Cilansetron 2 mg): 1 (<1%) n (%) | TEAE: Ear Infection NOS (Placebo/Cilansetron 2 mg): 2 (<1%) n (%) | TEAE: Ear Infections (Placebo/Cilansetron 2 mg): 3 (1%) n (%) | TEAE: Electrocardiogram Qrs Complex Abnormal (Placebo/Cilansetron 2 mg): 0 n (%) | TEAE: Electrocardiogram T Wave Inversion (Placebo/Cilansetron 2 mg): 1 (<1%) n (%) | TEAE: Enteritis (Placebo/Cilansetron 2 mg): 1 (<1%) n (%) | TEAE: Epigastric Discomfort (Placebo/Cilansetron 2 mg): 1 (<1%) n (%)
